According to paper PMC4528135, “Kinetic Investigations of the Role of Factor Inhibiting Hypoxia-inducible Factor (FIH) as an Oxygen Sensor” (The Journal of Biological Chemistry, 2015):
Read-outs that look alike come from different tables or passages of the source.

How the values were obtained:
Assay type in all cases: biochemical
PHD2 [1] = target: T1, PHD2 (Homo sapiens, UniProt Q9GZT9); assay: Rapid quench-flow, PHD2 pre-steady-state product and succinate formation; conditions: same mixture as stopped-flow, O2-saturated buffer 1:1, 5 °C, quenched with 1% CF3CO2H; for Rapid quench-flow kproduct: peptide hydroxylation by MALDI-TOF-MS, single exponential fit; for Rapid quench-flow ksuccinate: succinate by LC-MS
T1 construct: The catalytic domain of PHD2 (residues 181–426) was purified as described; made in house
T1 sequence (Q9GZT9 181-426): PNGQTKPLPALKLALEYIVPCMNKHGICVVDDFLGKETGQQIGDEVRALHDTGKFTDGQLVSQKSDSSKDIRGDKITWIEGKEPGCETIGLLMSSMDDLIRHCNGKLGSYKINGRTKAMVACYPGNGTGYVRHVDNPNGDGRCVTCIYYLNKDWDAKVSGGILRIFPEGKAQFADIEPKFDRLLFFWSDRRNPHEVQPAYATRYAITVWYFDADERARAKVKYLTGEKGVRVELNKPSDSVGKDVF
Description: Rapid quench-flow experiments were performed using the same conditions and preparation of the assay mixture as used in stopped-flow experiments. Rapid quench-flow equipment (TgK Scientific Ltd.) in an anaerobic glove box was used for the experiments. Samples were quenched with 1% CF3CO2H and analyzed using MALDI-TOF-MS (peptide hydroxylation) as described above or liquid chromatography-mass spectrometry (LC-MS, for succinate production). For LC-MS, chromatographic separation was performed at 50 °C using a Waters ACQUITY BEH Amide 1.7-μm, 2.1 × 100-mm column on a Waters ACQUITY^TM ultraperformance liquid chromatography system (Waters Corp., Milford, MA). The following eluents were used: mobile phase A: 10% H2O, 90% acetonitrile (v/v), 10 mM ammonium formate; mobile phase B: 50% H2O, 50% acetonitrile (v/v), 10 mM ammonium formate. The elution gradient was 0–7.0 min linear from 10 to 30% B, and 7.0–9.0 min at 10% B for re-equilibration of the column. A constant flow rate of 0.4 ml/min was used. Analytes were detected in negative ionization mode using single reaction monitoring on a Quattro triple quadrupole mass spectrometer (Waters) with a cone voltage of 15 V and a capillary voltage of 3.0 kV. The desolvation temperature was set to 250 °C, and the source temperature was set to 120 °C.
To investigate correlation of the spectroscopic observations with rates of product accumulation, equivalent reactions were analyzed by rapid quench-flow methodology. Anerobically prepared PHD2·Fe(II)·2OG·peptide substrate complexes were mixed with O2-saturated buffer in a 1:1 ratio; reactions were quenched at defined time points with 1% aqueous CF3CO2H. The level of peptide hydroxylation was assessed by MALDI-TOF-MS ([42]), and succinate accumulation was analyzed by LC-MS. To obtain rate constants for product accumulation, the results were fitted with a single exponential function (Fig. 5E and Table 3).

PHD2 [2] = target: T1, PHD2; assay: O2 dependence of PHD2-catalyzed hydroxylation (sealed vials, N2/O2 mixes); conditions: PHD2 with the named 19-mer substrate; 4 μM PHD2, 50 μM Fe(II), 4 mM L-ascorbate, 50 mM HEPES pH 7.5, 37 °C, O2 levels set by mass flow controllers; triplicate assays; read-out: Km^app(O2)
Description: (§1) The O2 dependence of FIH-catalyzed reactions was determined by conducting enzymatic assays in an “In vivo 500 Hypoxia Workstation” (Ruskinn) using buffers pre-equilibrated under different pO2 values for 24 h. The O2 dependence of PHD2-catalyzed reactions was determined by conducting enzymatic assays in sealed glass vials with variable N2/O2 contents ([42]). Reactions were stopped by spotting samples onto a matrix-assisted laser desorption/ionization-time of flight mass spectrometry (MALDI-TOF-MS) target plate and immediately mixing with α-cyano-4-hydroxycinnamic acid matrix. Hydroxylation levels were assessed by MALDI-TOF-MS as described ([46]).
FIGURE 4. O2 dependence of FIH- and PHD2-catalyzed hydroxylation of HIF-1/2α. A, O2 dependence of PHD2-catalyzed hydroxylation of HIF-1/2α CODD/NODD 19-mer peptides. 4 μM PHD2, peptide (varied), 50 μM Fe(II), 2OG (varied), 4 mM L-ascorbate in HEPES 50 mM (pH 7.5) were incubated at 37 °C. The different O2 levels were maintained using mass flow controllers ([42]), and the hydroxylation levels were analyzed by MALDI-TOF-MS. B, O2 dependence of FIH-catalyzed hydroxylation of CAD HIF-1/2α 35-mer peptides. Conditions were as follows. 5 μM FIH, 500 μM peptide, 50 μM Fe(II), 1 mM 2OG, 1 mM L-ascorbate in HEPES 50 mM (pH 7.5) were incubated at 37 °C in a hypoxia work station under different pO2. […] Error bars, S.D. of triplicate assays.

[3] = target: T2, PHD2 (catalytic domain, residues 181–426) (Homo sapiens, UniProt Q9GZT9); assay: Steady-state kinetics of PHD2-catalyzed HIF-α CODD/NODD hydroxylation (MALDI-TOF-MS); conditions: 4 mM L-ascorbate, 50 mM HEPES pH 7.5, 37 °C; for kcat^app: PHD2, 4 μM PHD2, 50 μM Fe(II); for Km: 50 μM Fe(II), triplicate assays
T2 construct: The catalytic domain of PHD2 (residues 181–426) was purified as described; made in house
T2 sequence (Q9GZT9 181-426): as above
Description: (§2) Enzymatic assays were conducted as described ([46], [47]). Unless otherwise stated, the assay mixture typically contained 5 μM FIH, 500 μM substrate, 500 μM 2OG, 1 mM L-ascorbate, and 50 μM Fe(NH4)2(SO4)2 or 4 μM PHD2, 100 μM substrate, 300 μM 2OG, 4 mM L-ascorbate, and 50 μM Fe(NH4)2(SO4)2. For HIF-1α CODD19-mer, the background levels of methionine oxidation resulting from assay conditions were subtracted based on non-enzymatic controls ([48]).
as §1

FIH = target: T3, FIH (Homo sapiens, UniProt Q9NWT6); assay: Time course of FIH-catalyzed peptide hydroxylation; conditions: 5 μM FIH, 500 μM peptide, atmospheric O2; for substrate hydroxylation (time course): 50 μM Fe(II), 500 μM 2OG, 1 mM L-ascorbate, 50 mM HEPES pH 7.5, 37 °C, MALDI-TOF-MS, triplicate assays
T3 construct: Full-length recombinant FIH, two- and three-consensus ankyrin repeats (2CA and 3CA) were produced as described; His6 (cleaved yes); made in house; host or cells: Escherichia coli BL21(DE3)
T3 sequence (Q9NWT6 whole entry): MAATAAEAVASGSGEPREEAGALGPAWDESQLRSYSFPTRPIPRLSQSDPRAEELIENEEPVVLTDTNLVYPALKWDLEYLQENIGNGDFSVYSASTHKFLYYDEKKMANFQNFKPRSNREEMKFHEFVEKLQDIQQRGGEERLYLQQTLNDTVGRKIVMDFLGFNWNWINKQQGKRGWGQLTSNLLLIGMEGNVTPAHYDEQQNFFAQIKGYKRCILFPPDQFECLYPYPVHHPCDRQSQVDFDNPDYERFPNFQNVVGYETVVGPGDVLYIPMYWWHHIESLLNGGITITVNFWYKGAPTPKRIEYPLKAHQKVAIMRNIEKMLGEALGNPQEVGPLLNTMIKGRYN
Description: as §2
FIGURE 3. PHD2- and FIH-catalyzed hydroxylation of HIF-1/2α peptide substrates. A, time course of HIF-1/2α CODD19-mer peptide hydroxylation; B, time course of HIF-1/2α NODD19-mer peptide hydroxylation. Conditions were as follows: 4 μM PHD2, 100 μM peptide, 50 μM Fe(II), 300 μM 2OG, 1 mM L-ascorbate in HEPES 50 mM (pH 7.5) were incubated at 37 °C at atmospheric O2. C, time course of HIF-1α CAD 19- and 35-mer peptide hydroxylation. D, time course of HIF-2α CAD 19- and 35-mer peptide hydroxylation. Conditions were as follows: 5 μM FIH, 500 μM peptide, 50 μM Fe(II), 500 μM 2OG, 1 mM L-ascorbate in HEPES 50 mM (pH 7.5) were incubated at 37 °C at atmospheric O2. The different hydroxylation levels were analyzed by MALDI-TOF-MS. Error bars, S.D. of triplicate assays.

[4] = PHD2, 4 μM PHD2, peptide varied, 300 μM 2OG, read-out: Km^app(peptide)
[5] = PHD2 with the named substrate, 4 μM PHD2, 2OG varied, read-out: Km^app(2OG)

Sequence | Rapid quench-flow kproduct (PHD2 [1]) [s⁻¹] | Rapid quench-flow ksuccinate (PHD2 [1]) [s⁻¹] | Km (PHD2 [2]) [µM] | kcat^app [3] [s⁻¹] | Km [3, 4] [µM] | Km [3, 5] [µM] | substrate hydroxylation (time course) (FIH) | increase in activity on increasing peptide length (19-mer to 35-mer) (FIH; standard conditions, 37 °C) [%]
EELAQLAPTPGDAIISLDF [HIF-2α NODD, 19-mer fragment (398–416) of the HIF-2α N-terminal oxygen-dependent degradation domain, PHD2 substrate] | 0.0199 ± 0.0032 | 0.0270 ± 0.0060 | 410 ± 80 | 0.013 ± 0.001 | 50 ± 8 | 17 ± 5 |  | 
ELDLETLAPYIPMDGEDFQ [HIF-2α CODD, 19-mer fragment (523–541) of the HIF-2α C-terminal oxygen-dependent degradation domain, PHD2 substrate] | 0.0124 ± 0.0030 | 0.0120 ± 0.0070 | > 450 | 0.069 ± 0.006 | 34 ± 10 | 9 ± 2 |  | 
DESGLPQLTSYDCEVNAPIQGSRNLLQGEELLRAL [HIF-1α CAD35-mer] |  |  |  |  |  |  | nearly complete substrate hydroxylation | 
ESYLLPELTRYDCEVNVPVLGSSTLLQGGDLLRAL [HIF-2α CAD35-mer] |  |  |  |  |  |  | < 30% | 10
